Measurements: ChEMBL document CHEMBL1909046, “DrugMatrix in vitro pharmacology data”

Experiments:
[1] = biological target: Vascular endothelial growth factor receptor 1 (Homo sapiens, UniProt P17948); format: cell-based; conditions: huvec; note: in other assays of this panel Not Active means under 50% inhibition at 10 µM
Insulin receptor = Insulin receptor (Rattus norvegicus, UniProt P15127); format: cell membranes, Wistar, Liver, Membrane; note: in other assays of this panel Not Active means under 50% inhibition at 10 µM
Endothelin-1 receptor = biological target: T1, Endothelin-1 receptor (Homo sapiens, UniProt P25101); format: cell membranes, Membrane; conditions: cho-k1; note: in other assays of this panel Not Active means under 50% inhibition at 10 µM
T1 sequence (P25101 whole entry): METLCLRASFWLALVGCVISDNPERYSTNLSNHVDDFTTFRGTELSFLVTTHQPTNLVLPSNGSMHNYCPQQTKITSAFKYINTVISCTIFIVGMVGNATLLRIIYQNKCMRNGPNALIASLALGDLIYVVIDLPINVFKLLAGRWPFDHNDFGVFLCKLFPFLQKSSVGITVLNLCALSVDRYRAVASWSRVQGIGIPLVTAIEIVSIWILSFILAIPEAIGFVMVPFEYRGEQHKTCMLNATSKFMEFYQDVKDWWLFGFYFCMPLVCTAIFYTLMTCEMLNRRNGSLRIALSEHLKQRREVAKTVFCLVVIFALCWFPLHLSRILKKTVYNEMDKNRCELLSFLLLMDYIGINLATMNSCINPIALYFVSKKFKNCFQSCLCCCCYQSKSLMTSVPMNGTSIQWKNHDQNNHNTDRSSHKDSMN

Substance-P receptor = Substance-P receptor (Homo sapiens, UniProt P25103); format: cell membranes, Membrane; conditions: cho; note: in other assays of this panel Not Active means under 50% inhibition at 10 µM
[2] = DRUGMATRIX: Potassium Channel [KATP] radioligand binding (ligand: [3H] Glyburide); format: cell membranes, Membrane; conditions: hit-t15; Not Active = under 50% inhibition at 10 µM
Adenosine receptor A3 = biological target: T2, Adenosine receptor A3 (Homo sapiens, UniProt P0DMS8); format: cell membranes, CHO-K1, Membrane
T2 sequence (P0DMS8 whole entry): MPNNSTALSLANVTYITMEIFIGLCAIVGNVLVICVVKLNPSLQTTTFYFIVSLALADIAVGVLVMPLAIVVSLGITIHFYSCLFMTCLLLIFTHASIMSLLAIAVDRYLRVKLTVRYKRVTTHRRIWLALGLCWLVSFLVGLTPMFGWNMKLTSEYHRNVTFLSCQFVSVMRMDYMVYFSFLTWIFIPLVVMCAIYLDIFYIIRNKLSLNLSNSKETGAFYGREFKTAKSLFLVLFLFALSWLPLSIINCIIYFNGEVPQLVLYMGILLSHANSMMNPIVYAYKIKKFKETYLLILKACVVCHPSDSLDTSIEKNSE

[3] = biological target: Receptor tyrosine-protein kinase erbB-2 (Homo sapiens, UniProt P04626); format: cell-based; conditions: insect cells
[4] = biological target: 5-hydroxytryptamine receptor 4 (Cavia porcellus, UniProt O70528); format: cell membranes, Dunkin-Hartley, Striatum, Membrane; note: in other assays of this panel Not Active means under 50% inhibition at 10 µM
Sequence of 5-hydroxytryptamine receptor 4 (O70528 whole entry): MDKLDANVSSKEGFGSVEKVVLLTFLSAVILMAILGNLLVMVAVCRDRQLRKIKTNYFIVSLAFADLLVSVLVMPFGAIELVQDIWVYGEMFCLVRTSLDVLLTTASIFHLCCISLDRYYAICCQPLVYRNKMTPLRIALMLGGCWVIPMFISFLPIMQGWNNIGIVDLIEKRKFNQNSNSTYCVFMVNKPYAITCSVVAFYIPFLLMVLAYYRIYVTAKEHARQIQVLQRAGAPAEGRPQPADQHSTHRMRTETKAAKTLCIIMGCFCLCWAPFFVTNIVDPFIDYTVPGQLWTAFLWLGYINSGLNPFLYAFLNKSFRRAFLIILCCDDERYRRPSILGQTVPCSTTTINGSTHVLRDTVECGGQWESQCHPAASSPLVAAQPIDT

Sequence of Substance-P receptor (P25103 whole entry): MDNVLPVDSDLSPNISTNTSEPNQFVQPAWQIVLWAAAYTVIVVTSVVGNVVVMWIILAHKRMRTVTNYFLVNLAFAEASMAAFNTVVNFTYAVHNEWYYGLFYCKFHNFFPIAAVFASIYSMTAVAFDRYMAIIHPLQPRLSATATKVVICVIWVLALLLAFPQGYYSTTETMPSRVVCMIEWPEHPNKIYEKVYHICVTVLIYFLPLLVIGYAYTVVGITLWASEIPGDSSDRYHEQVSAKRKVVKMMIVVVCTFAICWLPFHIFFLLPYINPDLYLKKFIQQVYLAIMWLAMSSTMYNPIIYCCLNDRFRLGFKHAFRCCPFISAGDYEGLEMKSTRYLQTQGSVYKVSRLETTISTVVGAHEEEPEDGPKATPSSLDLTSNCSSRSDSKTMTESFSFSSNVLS
Sequence of Vascular endothelial growth factor receptor 1 (P17948 whole entry): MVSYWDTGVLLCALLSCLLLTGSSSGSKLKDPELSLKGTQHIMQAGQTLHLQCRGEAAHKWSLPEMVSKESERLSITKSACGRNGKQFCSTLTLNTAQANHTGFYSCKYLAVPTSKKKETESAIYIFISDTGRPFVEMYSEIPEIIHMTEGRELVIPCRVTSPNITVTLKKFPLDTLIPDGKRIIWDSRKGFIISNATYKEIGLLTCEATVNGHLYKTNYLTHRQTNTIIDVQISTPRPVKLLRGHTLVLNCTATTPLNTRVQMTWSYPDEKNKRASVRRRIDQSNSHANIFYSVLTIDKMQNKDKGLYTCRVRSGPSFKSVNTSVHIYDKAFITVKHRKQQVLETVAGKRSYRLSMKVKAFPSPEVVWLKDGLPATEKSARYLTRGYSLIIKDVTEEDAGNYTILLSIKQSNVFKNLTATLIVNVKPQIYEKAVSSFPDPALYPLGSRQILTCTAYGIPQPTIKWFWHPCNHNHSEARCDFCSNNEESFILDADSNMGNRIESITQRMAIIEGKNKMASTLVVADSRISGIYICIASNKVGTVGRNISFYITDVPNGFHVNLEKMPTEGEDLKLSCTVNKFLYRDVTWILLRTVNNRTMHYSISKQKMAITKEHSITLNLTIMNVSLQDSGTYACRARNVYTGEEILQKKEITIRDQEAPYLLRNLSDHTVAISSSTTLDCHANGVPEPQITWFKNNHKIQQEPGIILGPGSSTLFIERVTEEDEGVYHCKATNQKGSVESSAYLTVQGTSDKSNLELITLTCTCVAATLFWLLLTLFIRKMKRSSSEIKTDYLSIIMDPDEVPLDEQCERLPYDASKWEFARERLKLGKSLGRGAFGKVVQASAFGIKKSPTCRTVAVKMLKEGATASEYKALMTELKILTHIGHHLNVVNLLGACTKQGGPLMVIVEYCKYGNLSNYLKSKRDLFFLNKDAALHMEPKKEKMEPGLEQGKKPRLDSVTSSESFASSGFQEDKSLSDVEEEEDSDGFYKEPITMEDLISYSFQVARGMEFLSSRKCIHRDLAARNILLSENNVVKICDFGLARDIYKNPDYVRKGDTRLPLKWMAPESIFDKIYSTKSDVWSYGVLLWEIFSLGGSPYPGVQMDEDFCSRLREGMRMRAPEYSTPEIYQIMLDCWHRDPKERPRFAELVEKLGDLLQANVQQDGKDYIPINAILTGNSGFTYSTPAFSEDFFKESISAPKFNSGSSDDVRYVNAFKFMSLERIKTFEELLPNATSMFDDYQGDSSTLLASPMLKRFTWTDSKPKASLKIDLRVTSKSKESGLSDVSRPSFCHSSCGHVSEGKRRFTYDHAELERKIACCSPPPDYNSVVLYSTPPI
Sequence of Insulin receptor (P15127 27-759 limits assumed): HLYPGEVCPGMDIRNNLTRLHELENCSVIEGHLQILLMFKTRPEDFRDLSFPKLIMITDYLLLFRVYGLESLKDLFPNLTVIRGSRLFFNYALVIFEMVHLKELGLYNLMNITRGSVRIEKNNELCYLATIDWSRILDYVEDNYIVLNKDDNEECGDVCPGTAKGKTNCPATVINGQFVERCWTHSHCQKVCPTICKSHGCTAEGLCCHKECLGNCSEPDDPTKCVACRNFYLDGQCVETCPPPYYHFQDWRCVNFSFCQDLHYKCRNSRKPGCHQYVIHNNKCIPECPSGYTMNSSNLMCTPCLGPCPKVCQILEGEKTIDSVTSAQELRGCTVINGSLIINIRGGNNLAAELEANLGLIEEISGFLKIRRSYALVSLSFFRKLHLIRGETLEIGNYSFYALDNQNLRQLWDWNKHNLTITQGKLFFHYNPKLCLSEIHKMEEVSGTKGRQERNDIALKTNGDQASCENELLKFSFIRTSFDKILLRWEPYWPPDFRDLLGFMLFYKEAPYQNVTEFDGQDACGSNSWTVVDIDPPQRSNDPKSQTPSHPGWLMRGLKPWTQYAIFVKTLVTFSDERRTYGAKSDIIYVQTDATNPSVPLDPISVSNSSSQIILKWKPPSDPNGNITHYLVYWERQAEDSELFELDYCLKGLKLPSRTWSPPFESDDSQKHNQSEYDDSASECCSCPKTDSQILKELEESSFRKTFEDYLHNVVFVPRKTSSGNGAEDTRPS
Sequence of Insulin receptor (P15127 764-1383 limits assumed): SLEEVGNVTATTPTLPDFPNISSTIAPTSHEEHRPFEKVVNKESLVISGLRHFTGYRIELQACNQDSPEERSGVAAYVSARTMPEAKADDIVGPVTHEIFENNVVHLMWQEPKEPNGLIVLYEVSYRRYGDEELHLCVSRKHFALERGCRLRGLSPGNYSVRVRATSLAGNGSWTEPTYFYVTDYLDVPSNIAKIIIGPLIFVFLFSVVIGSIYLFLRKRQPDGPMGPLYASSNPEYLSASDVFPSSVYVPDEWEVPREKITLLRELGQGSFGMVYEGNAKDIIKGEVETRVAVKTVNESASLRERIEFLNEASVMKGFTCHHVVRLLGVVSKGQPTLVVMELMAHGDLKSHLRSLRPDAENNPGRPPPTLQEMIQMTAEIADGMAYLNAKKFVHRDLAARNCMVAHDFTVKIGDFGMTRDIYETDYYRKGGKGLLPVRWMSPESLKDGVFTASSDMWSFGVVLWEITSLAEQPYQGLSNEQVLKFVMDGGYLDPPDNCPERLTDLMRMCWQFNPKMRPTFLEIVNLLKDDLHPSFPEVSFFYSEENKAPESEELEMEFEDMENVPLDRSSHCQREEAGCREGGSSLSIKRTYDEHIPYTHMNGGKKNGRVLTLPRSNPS

Compound | IC50 [1] | IC50 (Insulin receptor) | IC50 (Endothelin-1 receptor) | IC50 (Substance-P receptor) | IC50 [2] | Ki [2] | IC50 (Adenosine receptor A3; cho-k1) | IC50 [3] | IC50 ([4]; read-out: IC50) [nM] | Ki ([4]; read-out: Ki) [nM] | IC50 [4] | IC50 (Adenosine receptor A3; read-out: IC50) [nM] | Ki (Adenosine receptor A3; read-out: Ki) [nM] | Ki [1] | Ki (Insulin receptor) | Ki (Endothelin-1 receptor) | Ki (Substance-P receptor) | Ki (Adenosine receptor A3; cho-k1) | Ki [3] | Ki [4]
CCOc1cc(N)c(Cl)cc1C(=O)NCC1CN(Cc2ccc(F)cc2)CCO1 (stereo not given) [MOSAPRIDE] | Not Active | Not Active | Not Active | Not Active | Not Active | Not Active | Not Active | Not Active | 882 | 147 | – | – | – | – | – | – | – | – | – | –
O=C(c1ccccc1)c1ccc2n1CCC2C(=O)O (stereo not given) [KETOROLAC] | Not Active | Not Active | Not Active | Not Active | Not Active | Not Active | Not Active | Not Active | – | – | Not Active | – | – | – | – | – | – | – | – | –
Nc1nc(N)c2nc(-c3ccccc3)c(N)nc2n1 | Not Active | Not Active | Not Active | Not Active | Not Active | Not Active | Not Active | Not Active | – | – | Not Active | – | – | – | – | – | – | – | – | –
Oc1ccc(/C=C/c2cc(O)cc(O)c2)cc1 [RESVERATROL] | Not Active | Not Active | Not Active | Not Active | Not Active | Not Active | Not Active | Not Active | – | – | Not Active | – | – | – | – | – | – | – | – | –
Cc1ccnc(NS(=O)(=O)c2ccc(N)cc2)n1 [SULFAMERAZINE] | Not Active | Not Active | Not Active | Not Active | Not Active | Not Active | Not Active | Not Active | – | – | Not Active | – | – | – | – | – | – | – | – | –
CCN1CCCC1CNC(=O)c1cc(S(N)(=O)=O)ccc1OC (stereo not given) [SULPIRIDE] | Not Active | Not Active | Not Active | Not Active | Not Active | Not Active | Not Active | Not Active | – | – | Not Active | – | – | – | – | – | – | – | – | –
O=C1CC[C@@]2(O)[C@H]3Cc4ccc(O)c5c4[C@@]2(CCN3CC2CC2)[C@H]1O5 [NALTREXONE] | Not Active | Not Active | Not Active | Not Active | Not Active | Not Active | Not Active | Not Active | – | – | Not Active | – | – | – | – | – | – | – | – | –
CCN(CC)C(=S)SSC(=S)N(CC)CC | Not Active | Not Active | Not Active | Not Active | Not Active | Not Active | – | Not Active | – | – | Not Active | 356 | 201 | – | – | – | – | – | – | –
O=C(OC[C@H]1O[C@@H](OC(=O)c2cc(O)c(O)c(OC(=O)c3cc(O)c(O)c(O)c3)c2)[C@H](OC(=O)c2cc(O)c(O)c(OC(=O)c3cc(O)c(O)c(O)c3)c2)[C@@H](OC(=O)c2cc(O)c(O)c(OC(=O)c3cc(O)c(O)c(O)c3)c2)[C@@H]1OC(=O)c1cc(O)c(O)c(OC(=O)c2cc(O)c(O)c(O)c2)c1)c1cc(O)c(O)c(OC(=O)c2cc(O)c(O)c(O)c2)c1 [TANNIC ACID] | Not Active | Not Active | Not Active | Not Active | Not Active | Not Active | Not Active | Not Active | – | – | Not Active | – | – | – | – | – | – | – | – | –
C=CCc1ccc2c(c1)OCO2 [SAFROLE] | Not Active | Not Active | Not Active | Not Active | Not Active | Not Active | Not Active | Not Active | – | – | Not Active | – | – | – | – | – | – | – | – | –
C#C[C@]1(O)CC[C@H]2[C@@H]3[C@H](C)CC4=C(CCC(=O)C4)[C@H]3CC[C@@]21C [TIBOLONE] | Not Active | Not Active | Not Active | Not Active | Not Active | Not Active | Not Active | Not Active | – | – | Not Active | – | – | – | – | – | – | – | – | –
CC[C@@]1(O)C(=O)OCc2c1cc1n(c2=O)Cc2cc3c(CN(C)C)c(O)ccc3nc2-1 [TOPOTECAN] | Not Active | Not Active | Not Active | Not Active | Not Active | Not Active | Not Active | Not Active | – | – | Not Active | – | – | – | – | – | – | – | – | –
CC1(C)[C@H](C(=O)O)N2C(=O)C[C@H]2S1(=O)=O [SULBACTAM] | Not Active | Not Active | Not Active | Not Active | Not Active | Not Active | Not Active | Not Active | – | – | Not Active | – | – | – | – | – | – | – | – | –
CCN(CC)N=O [N-NITROSODIETHYLAMINE] | Not Active | Not Active | Not Active | Not Active | Not Active | Not Active | Not Active | Not Active | – | – | Not Active | – | – | – | – | – | – | – | – | –
C[C@]12CCC(=O)C[C@@H]1CC[C@@H]1[C@@H]2CC[C@]2(C)[C@@H](O)CC[C@@H]12 [STANOLONE] | Not Active | Not Active | Not Active | Not Active | Not Active | Not Active | Not Active | Not Active | – | – | Not Active | – | – | – | – | – | – | – | – | –
Cc1cccc(C)c1NC(=O)C(C)N (stereo not given) [TOCAINIDE] | Not Active | Not Active | Not Active | Not Active | Not Active | Not Active | Not Active | Not Active | – | – | Not Active | – | – | – | – | – | – | – | – | –
LEAD(IV) ACETATE | Not Active | Not Active | Not Active | Not Active | Not Active | Not Active | Not Active | Not Active | – | – | Not Active | – | – | Not Active | Not Active | Not Active | Not Active | Not Active | Not Active | Not Active
CC#C[C@]1(O)CC[C@H]2[C@@H]3CCC4=CC(=O)CCC4=C3[C@@H](c3ccc(N(C)C)cc3)C[C@@]21C [MIFEPRISTONE] | Not Active | Not Active | Not Active | Not Active | Not Active | Not Active | Not Active | Not Active | – | – | Not Active | – | – | – | – | – | – | – | – | –
CS(=O)(=O)c1ccc(C2=C(c3ccccc3)C(=O)OC2)cc1 [ROFECOXIB] | Not Active | Not Active | Not Active | Not Active | Not Active | Not Active | Not Active | Not Active | – | – | Not Active | – | – | – | – | – | – | – | – | –
COC(=O)Nc1nc2ccc(C(=O)c3ccccc3)cc2[nH]1 [MEBENDAZOLE] | Not Active | Not Active | Not Active | Not Active | Not Active | Not Active | Not Active | Not Active | – | – | Not Active | – | – | – | – | – | – | – | – | –
Cc1cc2c(s1)Nc1ccccc1N=C2N1CCN(C)CC1 [OLANZAPINE] | Not Active | Not Active | Not Active | Not Active | – | – | Not Active | Not Active | – | – | Not Active | – | – | – | – | – | – | – | – | –
CNCCCC12CCC(c3ccccc31)c1ccccc12 [MAPROTILINE] | Not Active | Not Active | Not Active | Not Active | – | – | Not Active | Not Active | – | – | Not Active | – | – | – | – | – | – | – | – | –
CN(C)CCC=C1c2ccccc2COc2ccccc21 [DOXEPIN] | Not Active | Not Active | Not Active | Not Active | – | – | Not Active | Not Active | – | – | Not Active | – | – | – | – | – | – | – | – | –
